Measurements as given in article PMC8395335, “Serotonergic–Muscarinic Interaction within the Prefrontal Cortex as a Novel Target to Reverse Schizophrenia-Related Cognitive Symptoms” (International Journal of Molecular Sciences, 2021).

Tested on: MK-801-treated mice
Test: Y-maze test (spontaneous alternations), MK-801-induced deficits
Assay type: in vivo
Details: for Reversal of MK-801-induced disruptions in Y-maze by combined administration: 7 days; for Effect of combined administration on spontaneous alternations in the Y-maze test: MK-801-treated
Description: Drugs were administered on two different schedules: (1) acute administration of compounds 45 min (WAY100635—5-HT1A antagonist) or 30 min (VU0357017, VU152100, VU0238429, and F15599) before MK-801 (also administered once 30 min before the test in Y-maze or T1 in NOR test); and (2) prolonged administration (once per day for 7 consecutive days) of the compounds and MK-801 with the last administration 24 h before the test (NOR test) or at the day of the test (Y-maze). […] Schedules of administration are presented graphically in Figure 2. The subeffective doses of the compounds for acute administration in the NOR test were chosen based on our previous research (see: [22, 23]) while dose-dependent studies of the activity of the compounds in reversing disruptions in the Y-maze or after prolonged administration along with MK-801 were performed within this study. Different vehicles were used throughout the study: (1) 0.9% NaCl and (2) 10% Tween 80. Vehicles were administered to all animals (e.g., control mice and MK-801-treated mice) on the same schedule as drugs were administered to the appropriate drug-treated groups of mice. Neither solvent exerted effects on animal behavior.
Male Albino Swiss mice (Charles River, Sulzfeld, Germany) weighing 20–25 g at the beginning of the experiments were used in the studies. The animals were housed in a room with a 12:12 h light-dark cycle at a temperature of 22 ± 1 °C with food and water available ad libitum. The experimental groups consisted of 8–10 animals. All drugs were administered intraperitoneally (i.p.) at a volume of 10 mL/kg. The behavioral experiments were performed by an observer who was blinded to the treatment. The procedures were conducted in accordance with the European Communities Council Directive of 22 September 2010 (2010/63/EU) and Polish legislation acts concerning animal experimentation and were approved by the II Local Ethics Committee by the Maj Institute of Pharmacology, Polish Academy of Sciences in Krakow (15/2020, 240/2020).
In acute experiments, the tested compounds (alone or in combination) were administered 30 min before MK-801 (0.3 mg/kg), which was administered 30 min before the test or training trial (T1) in the NOR test. In chronic experiments, the tested compounds (alone or in combination) and MK-801 were administered for seven days. Behavioral tests were performed on the eighth day.
The Y-maze was performed using the methods described by Miedel et al. and Kraeuter et al. with minor modifications. A black, wooden Y-shaped apparatus with equal length arms (labeled A, B, or C) spaced 120 apart was used in the behavioral experiment. Visual clues were placed inside the maze and mounted to the back wall of each arm. The experiment was performed in a well-lit room. The mice were placed in the same starting arm and were allowed to freely explore the maze for 8 min. After each trial, the maze was wiped clean. The sequence and the number of arm entries were recorded to calculate the percentage of spontaneous alternations using the following formula: [(Number of alternations)/(Total arm entries − 2)] × 100. An arm entry was scored if the animal entered the arm with all paws. Consecutive entries into three distinct arms were scored as an alternation (e.g., ACB, but not ACA) in which sequences could overlap (e.g., ACBACABAC represents […] alternations).

[1] = F15599 0.025 mg/kg with VU0238429 1 mg/kg (subeffective doses)
[2] = F15599 0.025 mg/kg with VU0357017 1 mg/kg (subeffective doses)
[3] = acute, F15599 0.1 mg/kg with VU0238429 5 mg/kg
[4] = acute, F15599 0.1 mg/kg with VU0357017 10 mg/kg

Row | Compound | Reversal of MK-801-induced reduction in spontaneous alternations in the Y-maze (7 days with MK-801, 0.025 mg/kg) | Reversal of MK-801-induced reduction in spontaneous alternations in the Y-maze (7 days with MK-801, 0.05 mg/kg) | Reversal of MK-801-induced reduction in spontaneous alternations in the Y-maze (7 days with MK-801, 0.1 mg/kg) | Reversal of MK-801-induced disruptions in Y-maze by combined administration (F15599 0.025 mg/kg with VU0152100 0.05 mg/kg (subeffective doses)) | Reversal of MK-801-induced disruptions in Y-maze by combined administration [1] | Reversal of MK-801-induced disruptions in Y-maze by combined administration [2] | Reversal of MK-801-induced reduction in spontaneous alternations in the Y-maze (acute, 0.05-0.5 mg/kg i.p.) | Effect of combined administration on spontaneous alternations in the Y-maze test (acute, F15599 0.1 mg/kg with VU0152100 1 mg/kg) | Effect of combined administration on spontaneous alternations in the Y-maze test [3] | Effect of combined administration on spontaneous alternations in the Y-maze test [4] | Reversal of MK-801-induced reduction in spontaneous alternations in the Y-maze (7 days with MK-801, 0.5 mg/kg) | Reversal of MK-801-induced reduction in spontaneous alternations in the Y-maze (7 days with MK-801, 1 mg/kg) | Reversal of MK-801-induced reduction in spontaneous alternations in the Y-maze (7 days with MK-801, 5 mg/kg) | Reversal of MK-801-induced reduction in spontaneous alternations in the Y-maze (acute, 5 mg/kg i.p.) | Reversal of MK-801-induced reduction in spontaneous alternations in the Y-maze (acute, 10 mg/kg i.p.) | Reversal of MK-801-induced reduction in spontaneous alternations in the Y-maze (acute, 20 mg/kg i.p.) | Reversal of MK-801-induced reduction in spontaneous alternations in the Y-maze (acute, 1-10 mg/kg i.p.)
1 | Cc1cnc(CNCC2(F)CCN(C(=O)c3ccc(F)c(Cl)c3)CC2)nc1 [F15599] | ineffective | ineffective | reversed | did not reverse | did not reverse | did not reverse | no efficacy | no effect | no effect | no effect |  |  |  |  |  |  | 
2 | COc1ccc(CN2C(=O)C(=O)c3cc(OC(F)(F)F)ccc32)cc1 [VU0238429] |  |  |  |  | did not reverse |  |  |  | no effect |  | not | not | active | ineffective | reversed | reversed | 
3 | CCOC(=O)N1CCC(NCCNC(=O)c2ccccc2C)CC1 [VU0357017] |  |  |  |  |  | did not reverse |  |  |  | no effect | not | not | activity of VU0357017 was observed |  |  |  | No efficacy
